The target of this assay is T1, 5-hydroxytryptamine receptor 1A (Homo sapiens, UniProt P08908).
T1 sequence (P08908 whole entry): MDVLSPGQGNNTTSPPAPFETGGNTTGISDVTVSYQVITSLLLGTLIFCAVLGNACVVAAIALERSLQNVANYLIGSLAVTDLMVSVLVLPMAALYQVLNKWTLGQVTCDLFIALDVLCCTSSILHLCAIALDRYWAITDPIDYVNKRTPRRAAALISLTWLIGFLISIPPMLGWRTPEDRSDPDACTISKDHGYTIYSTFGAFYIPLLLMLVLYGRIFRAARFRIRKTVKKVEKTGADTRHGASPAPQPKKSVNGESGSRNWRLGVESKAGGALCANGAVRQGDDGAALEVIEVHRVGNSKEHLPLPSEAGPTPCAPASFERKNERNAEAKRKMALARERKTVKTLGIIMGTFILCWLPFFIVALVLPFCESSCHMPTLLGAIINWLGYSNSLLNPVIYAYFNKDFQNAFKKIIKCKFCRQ
As to the kind of experiment: Antagonist activity at 5HT1A. It counts as functional.

Each structure is given as a SMILES string.

Regarding `Cc1ccc2cccc(N3CCN(CCC(O)c4csc5ccc(F)cc45)CC3)c2n1` (centres undefined), the affinity, expressed as Ki, was 2.51 nM.
The figure for `CC1CN(CCC(O)c2csc3ccc(F)cc23)CCN1c1cccc2c1OCO2` (centres undefined) is 9.33 nM; for `COc1ccccc1N1CCN(CCC(O)c2csc(C)c2)CC1` (centres undefined) it is 372 nM.
For `Cc1ccc2cccc(N3CCN(CCC(O)c4csc5ccccc45)CC3)c2n1` (centres undefined) the value was 10.2 nM; for `COc1ccccc1N1CCN(CCC(=O)c2ccsc2)CC1`, 60.3 nM; for `Cc1cc(C(O)CCN2CCN(c3ccccc3O)CC2)c(C)s1` (centres undefined), 89.1 nM.
The figure for `OC(CCN1CCN(c2cccc3ncccc23)CC1)c1csc2ccccc12` (centres undefined) is 37.2 nM.
`OC(CCN1CCN(c2cccc3ccccc23)CC1)c1csc2ccccc12` (centres undefined): the inhibitory constant (Ki) was 66.1 nM.
For `OC(CCN1CCN(c2cnc3ccccc3c2)CC1)c1csc2ccccc12` (centres undefined) the value was 1000 nM; for `COc1ccccc1N1CCN(CCC(Oc2ccc3c(c2)OCO3)c2ccccc2)CC1` (centres undefined), 20 nM; for `COc1ccccc1N1CCN(CCC(Oc2cccc3ccccc23)c2ccsc2)CC1` (centres undefined), 182 nM.
For `OC(CCN1CCN(c2ncccn2)CC1)c1ccccc1` (centres undefined) the value was 372 nM.
The figure for `COc1ccc(OC(CCN2CCN(c3ccccc3OC)CC2)c2ccccc2)cc1` (centres undefined) is 89.1 nM; for `OC(CCN1CCN(c2ccccc2Cl)CC1)c1ccsc1` (centres undefined) it is 5010 nM.
As to `COc1ccccc1N1CCN(CCC(=O)c2cc(C)sc2C)CC1`, the inhibition constant (Ki) was 5010 nM.
The figure for `COc1ccccc1N1CCN(CCC(O)c2ccc(-c3ccccc3)cc2)CC1` (centres undefined) is 851 nM; for `FC(F)(F)c1ccc(OC(CCN2CCN(c3ccc(Cl)cc3)CC2)c2ccccc2)cc1` (centres undefined) it is 5010 nM.
For `COc1ccccc1N1CCN(CCC(Oc2ccc3c(c2)OCO3)c2ccsc2)CC1` (centres undefined) the value was 55 nM.
`COc1ccccc1N1CCN(CCC(O)c2ccc([N+](=O)[O-])cc2)CC1` (centres undefined) showed an inhibitory constant (Ki) of 10 nM.
Regarding `OC(CCN1CCN(c2ccc(F)cc2)CC1)c1ccccc1` (centres undefined), the affinity, expressed as Ki, was 145 nM.
In the case of `OC(CCN1CCN(c2ccc3ncccc3c2)CC1)c1csc2ccccc12` (centres undefined), the inhibitory constant (Ki) was 550 nM.
For `COc1ccccc1N1CCN(CCC(=O)c2ccc([N+](=O)[O-])cc2)CC1` the value was 50.1 nM; for `OC(CCN1CCN(c2cccc3c2OCCO3)CC1)c1csc2ccc(F)cc12` (centres undefined), 6.03 nM.
The figure for `Oc1ccccc1N1CCN(CCC(O)c2ccc3ccccc3c2)CC1` (centres undefined) is 191 nM; for `COc1ccccc1N1CCN(CCC(Oc2cccc3ccccc23)c2cccs2)CC1` (centres undefined) it is 219 nM; for `OC(CCN1CCN(c2cccc3c2OCCCO3)CC1)c1csc2ccccc12` (centres undefined) it is 1.91 nM.
For the compound `O=C(CCN1CCN(c2ccccc2O)CC1)c1ccc2ccccc2c1`, the affinity corresponds to a Ki of 1000 nM.
Compound `OC(CCN1CCN(c2cccc3cccnc23)CC1)c1csc2ccc(F)cc12` (centres undefined) showed an inhibition constant Ki of 2.69 nM.
The figure for `COc1cc(F)ccc1N1CCN(CCC(=O)c2cc(C)sc2C)CC1` is 12.9 nM.
For `OC(CCN1CCN(c2ccc3sccc3c2)CC1)c1csc2ccccc12` (centres undefined) the value was 1580 nM.
The figure for `OC(CCN1CCN(c2cccc3c2OCCCO3)CC1)c1csc2ccc(F)cc12` (centres undefined) is 3.02 nM; for `OC(CCN1CCN(c2cccc3cccnc23)CC1)c1csc2ccccc12` (centres undefined) it is 550 nM; for `COc1ccccc1N1CCN(CC/C(=N\O)c2csc3ccccc23)CC1` it is 794 nM.
`Cc1cc(C(=O)CCN2CCN(c3cccc4ccccc34)CC2)c(C)s1` had an inhibition constant (Ki) of 5010 nM.

Source of the values: ChEMBL document CHEMBL1157053, “Pharmacophore-based 3D QSAR studies on a series of high affinity 5-HT1A receptor ligands” (Eur J Med Chem, 2010).
